Assay results: ChEMBL document CHEMBL5385890, “A JAK tyrosine kinase and pseudokinase Co-inhibition strategy combines enhanced potency and on-demand activation” (Eur J Med Chem, 2023)
Active and inactive are the calls of the source. The calls are words filed in the database; no cut-off is given here.

Columns and labels:
HEL [1] = assay: Cytotoxicity against HEL cells assessed as inhibition of cell growth; assay type: functional, cell-based; settings: Homo sapiens
HEL [2] = assay: Cytotoxicity against HEL cells assessed as inhibition of cell growth incubated under dark condition in presence of N-tert-butyl-3-[[5-methyl-2-(4-piperazin-1-ylanilino)pyrimidin-4-yl]amino]benzenesulfonamide; assay type: functional, cell-based; settings: Homo sapiens
HEL [3] = assay: Antitumor activity against HEL cells xenografted in Balb/c nude mouse assessed as tumor growth inhibition at 25 mg/kg, ip administered once daily for 14 consecutive days relative to control; assay type: functional, Homo sapiens; settings: 336 h, time 14 day, read-out: TGI
HEL [4] = assay: Cytotoxicity against HEL cells assessed as inhibition of cell growth incubated under normoxic condition in presence of N-tert-butyl-3-[[5-methyl-2-(4-piperazin-1-ylanilino)pyrimidin-4-yl]amino]benzenesulfonamide; assay type: functional, cell-based; settings: Homo sapiens
HEL [5] = assay: Cytotoxicity against HEL cells assessed as inhibition of cell growth incubated under normoxic condition in presence of 3-cyclopropyl-1-(3-{5-[(morpholin-4-yl)methyl]-1H-1,3-benzodiazol-2-yl}-1H-pyrazol-4-yl)urea; assay type: functional, cell-based; settings: Homo sapiens
HEL [6] = assay: Antitumor activity against HEL cells xenografted in Balb/c nude mouse assessed as tumor growth inhibition at 25 mg/kg, ip administered once daily for 14 consecutive days in presence of N-tert-butyl-3-[[5-methyl-2-(4-piperazin-1-ylanilino)pyrimidin-4-yl]amino]benzenesulfonamide relative to control; assay type: functional, Homo sapiens; settings: 336 h, time 14 day, read-out: TGI
HEL [7] = assay: Cytotoxicity against HEL cells assessed as inhibition of cell growth incubated under hypoxic condition in presence of N-tert-butyl-3-[[5-methyl-2-(4-piperazin-1-ylanilino)pyrimidin-4-yl]amino]benzenesulfonamide; assay type: functional, cell-based; settings: Homo sapiens
HEL [8] = assay: Cytotoxicity against HEL cells assessed as inhibition of cell growth irradiated with 450 nm light and incubated in presence of N-tert-butyl-3-[[5-methyl-2-(4-piperazin-1-ylanilino)pyrimidin-4-yl]amino]benzenesulfonamide; assay type: functional, cell-based; settings: Homo sapiens, light or radiation study
HEL [9] = assay: Antitumor activity against HEL cells xenografted in Balb/c nude mouse assessed as induction of apoptosis in tumor at 25 mg/kg, ip administered once daily for 14 consecutive days in presence of N-tert-butyl-3-[[5-methyl-2-(4-piperazin-1-ylanilino)pyrimidin-4-yl]amino]benzenesulfonamide by TUNEL assay relative to control; assay type: functional, organism-based; settings: Homo sapiens, time 14.0 day
[10] = Prodrug release in HEL cells assessed as 3-cyclopropyl-1-(3-{5-[(morpholin-4-yl)methyl]-1H-1,3-benzodiazol-2-yl}-1H-pyrazol-4-yl)urea formation at 1 uM incubated under dark condition for 6 hrs by LC-MS/MS analysis; assay type: ADME, cell-based; settings: human
[11] = Stability of compound in human plasma measured after 24 hrs; assay type: ADME, cell-free; settings: read-out: Stability
[12] = Prodrug release in HEL cells assessed as 3-cyclopropyl-1-(3-{5-[(morpholin-4-yl)methyl]-1H-1,3-benzodiazol-2-yl}-1H-pyrazol-4-yl)urea formation at 1 uM illuminated with 405 nm light for 10 mins and measured after 6 hrs by LC-MS/MS analysis; assay type: ADME, cell-based; settings: human, 6.167 h, time 370 min
[13] = Prodrug release in HEL cells assessed as N-tert-butyl-3-[[5-methyl-2-(4-piperazin-1-ylanilino)pyrimidin-4-yl]amino]benzenesulfonamide formation at 1 uM incubated under dark condition for 6 hrs by LC-MS/MS analysis; assay type: ADME, cell-based; settings: human
HEL [14] = assay: Cytotoxicity against HEL cells assessed as inhibition of cell growth incubated under dark condition; assay type: functional, cell-based; settings: Homo sapiens
[15] = Cytotoxicity against HUVEC cells assessed as inhibition of cell growth; assay type: toxicity, cell-based; settings: human
[16] = Stability of compound in mouse plasma measured after 24 hrs; assay type: ADME, cell-free; settings: read-out: Stability
[17] = Stability of compound in PBS measured after 24 hrs; assay type: physicochemical; settings: PBS, read-out: Stability
HEL [18] = assay: Inhibition of JAK/STAT phosphorylation in HEL cells assessed as reduction in STAT5 phosphorylation at 1 uM incubated under dark condition by Western blot analysis relative to control; assay type: cell-based; settings: Homo sapiens
HEL [19] = assay: Cytotoxicity against HEL cells assessed as inhibition of cell growth irradiated with 450 nm light; assay type: functional, cell-based; settings: Homo sapiens, light or radiation study
[20] = Prodrug release in HEL cells assessed as N-tert-butyl-3-[[5-methyl-2-(4-piperazin-1-ylanilino)pyrimidin-4-yl]amino]benzenesulfonamide formation at 1 uM illuminated with 405 nm light for 10 mins and measured after 6 hrs by LC-MS/MS analysis; assay type: ADME, cell-based; settings: human, 6.167 h, time 370 min
HEL [21] = assay: Inhibition of JAK/STAT phosphorylation in HEL cells assessed as reduction in STAT3 phosphorylation at 1 uM incubated under dark condition by Western blot analysis relative to control; assay type: cell-based; settings: Homo sapiens
HEL [22] = assay: Inhibition of JAK/STAT phosphorylation in HEL cells assessed as reduction in STAT5 phosphorylation at 1 uM irradiated with 450 nm light by Western blot analysis relative to control; assay type: cell-based; settings: Homo sapiens
HEL [23] = assay: Inhibition of JAK/STAT phosphorylation in HEL cells assessed as reduction in STAT3 phosphorylation at 1 uM irradiated with 450 nm light by Western blot analysis relative to control; assay type: cell-based; settings: Homo sapiens
[24] = Cytotoxicity against HUVEC cells assessed as inhibition of cell growth incubated in presence of N-tert-butyl-3-[[5-methyl-2-(4-piperazin-1-ylanilino)pyrimidin-4-yl]amino]benzenesulfonamide; settings: human

N#CC[C@H](C1CCCC1)n1cc(-c2ncnc3[nH]ccc23)cn1 [RUXOLITINIB]
IC50 (HEL [1]): 7.46 µM

O=C(Nc1c[nH]nc1-c1nc2ccc(CN3CCOCC3)cc2[nH]1)NC1CC1 [AT-9283]
IC50 (HEL [2]): 1410 nM
inhibition in vivo at 25 mg/kg (HEL [3]): 85.9%
IC50 (HEL [4]): 650 nM
IC50 (HEL [5]): 650 nM
inhibition in vivo at 25 mg/kg (HEL [6]): 91.2%
IC50 (HEL [7]): 1340 nM
IC50 (HEL [1]): 1.04 µM
IC50 (HEL [8]): 2180 nM
Activity (HEL [9]): Active

CC[C@@](C)(Nc1ccnc(-c2c[nH]c3ncccc23)n1)C(=O)NCC(F)(F)F [DECERNOTINIB]
IC50 (HEL [1]): 2.56 µM

C[C@@H]1CCN(C(=O)CC#N)C[C@@H]1N(C)c1ncnc2[nH]ccc12 [TOFACITINIB]
IC50 (HEL [1]): 3.83 µM

CCN(CC)c1ccc2c(COC(=O)Oc3c(COC(=O)N4CCN(c5ccc(Nc6ncc(C)c(Nc7cccc(S(=O)(=O)NC(C)(C)C)c7)n6)cc5)CC4)cc(C)cc3COC(=O)n3cc(NC(=O)NC4CC4)c(-c4nc5cc(CN6CCOCC6)ccc5[nH]4)n3)cc(=O)oc2c1
Drug metabolism [10]: Metabolite_Notdetected
remaining at 24 h [11]: > 78.3%
Drug metabolism [12]: Metabolite_Detected
Drug metabolism [13]: Metabolite_Notdetected
IC50 (HEL [14]): > 200 µM
IC50 [15]: > 200000 nM
remaining at 24 h [16]: > 82.8%
remaining at 24 h [17]: > 95.1%
inhibition (HEL [18]): inactive
IC50 (HEL [19]): 1810 nM
Drug metabolism [20]: Metabolite_Detected
inhibition (HEL [21]): inactive
inhibition (HEL [22]): 100%
inhibition (HEL [23]): 100%

O=C(Nc1c[nH]nc1-c1nc2cc(CN3CCOCC3)ccc2[nH]1)NC1CC1 [AT-9283]
IC50 [24]: 1760 nM
IC50 [15]: 1770 nM
